Measurements reported in patent US7482358B2, “Imidazoline compounds” (Banyu Pharmaceutical Co., Ltd., priority 2000, dated 2009).
Like-named read-outs stand apart in the source and are kept apart here.

How the values were obtained:
human NPY Y5 receptor = biological target: T1, human NPY Y5 receptor (Homo sapiens, UniProt Q15761); experiment: NPY binding inhibition test ([125I] peptide YY binding to membranes of cells expressing NPY Y5 receptor); settings: against specific [125I] peptide YY binding, 25° C., 2 hours; read-out: IC50, inhibitory activities on NPY receptor binding
T1 construct: expressed in transfected cells; host or cells: COS-7, CHO and LM(tk-)
T1 sequence (Q15761 1-445): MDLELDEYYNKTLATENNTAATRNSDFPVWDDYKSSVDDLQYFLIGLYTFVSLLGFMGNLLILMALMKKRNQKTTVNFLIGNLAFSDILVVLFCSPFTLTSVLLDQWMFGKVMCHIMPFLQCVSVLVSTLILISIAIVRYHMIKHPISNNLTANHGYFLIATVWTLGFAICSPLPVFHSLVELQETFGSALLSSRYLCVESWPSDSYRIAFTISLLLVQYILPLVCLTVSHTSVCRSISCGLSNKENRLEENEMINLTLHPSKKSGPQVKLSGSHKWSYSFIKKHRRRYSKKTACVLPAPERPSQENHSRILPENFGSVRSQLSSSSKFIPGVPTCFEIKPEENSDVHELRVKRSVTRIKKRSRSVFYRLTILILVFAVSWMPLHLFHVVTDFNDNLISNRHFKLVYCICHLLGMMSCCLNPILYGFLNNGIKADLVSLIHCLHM
Experimental: These obtained expression vectors were transfected to host cells COS-7, CHO and LM(tk-)(American Type Culture Collection) by cationic lipid method (Confer Proceedings of the National Academy of Sciences of the United States of America, vol. 84:7413(1987)) to give recombinant cells which express NPY Y5 receptor.
A membrane sample prepared from the cells which expressed NPY Y5 receptor was incubated together with a test compound and (^125I) peptide YY (made by NEN) (20,00 cpm) in an assay buffer (25 mM Tris buffer, pH7.4, containing 10 mM magnesium chloride, 1 mM phenylmethylsulfonyl fluoride, 0.1% bacitracin and 0.5% bovine serum albumin) at 25° C. for 2 hours, then filtered through a glass filter GF/C and washed with 5 mM Tris buffer (pH7.4) containing 0.3% BSA. The radioactivity on the glass filter was measured. Nonspecific binding was measured in the presence of 1 μM peptide YY and a 50% Inhibitory Concentration (IC50) of the test compound against specific peptide YY binding was determined (Confer Endocrinology, vol. 131: 2090(1992)).

[1] = Test for pharmacokinetics; format: in vivo; settings: male SD rats, overnight fasting, oral or intravenous
Experimental: Pharmacological Test 3 (Test for Pharmacokinetics)
The tested compound was administered orally or intravenously to male SD rats (7-10 weeks old, 200-400 g) under overnight fasting condition, and about 100 μL of blood was taken from tail vein using a heparinized capillary at predefined time points. The blood samples were separated by centrifuge (4° C., 6,000 rpm, for 10 minutes) to obtain plasma. To the plasma, 3-fold volume of ethanol containing the internal standard substances was added and the mixture was stirred, then left at −20° C. for 20 minutes, followed by centrifugation (4° C., 10,000 rpm for 10 minutes). The supernatant was analyzed by LC/MS/MS and then the concentration of the test compound in plasma was measured by the relative calibration curve method.

[2] = Brain and cerebrospinal fluid penetration test; format: in vivo, male SD rats; settings: 2 hours after oral administration (10 mg/kg), rat; for concentration at 2 h: male, Sprague-Dawley
Experimental: Pharmacological Test 4 (Brain and Cerebrospinal Fluid Penetration Test)
The tested compound was administered orally or intravenously to male SD rats (7-10 weeks old, 200-400 g). The rats anesthetized with ether, and the all blood were taken at predefined time points with a heparinized syringe from the abdominal aorta. Further, the rats were cut the skin of occipital region of head and inserted a 30 G dental needle between cervical vertebrae, into subarachnoid cavity. And then, 50-100 μL of cerebrospinal fluid was collected in a 1 mL syringe through a tube connected with the 30G dental needle, followed by taking out the brain. To the plasma obtained from the centrifuged blood sample (4° C., 6,000 rpm, for 10 minutes), 3-fold volume of ethanol including the internal standard substances was added and the mixture was stirred. To the brain sample, 2 mL of water was added and the mixture was homogenized. To an aliquot of the homogenized mixture, 3-fold volume of ethanol including the internal standard substances was added, followed by stirring. To the cerebrospinal fluid, 3-fold volume of ethanol containing the internal standard substances was added, followed by stirring. The above samples were left at −20° C. for 20 minutes and separated by centrifuge (4° C., 12,000 g, for 10 minutes). The supernatant was analyzed by LC/MS/MS and then each concentration in plasma, brain and cerebrospinal fluid was measured by the relative calibration curve method.

SMILES | melting point [°C] | other results
CN(C)c1ccc(C2(c3ccccc3)CNC(c3cccc(C#N)c3)=N2)cc1 (stereo not shown) [Example 5-27, 2-(3-cyanophenyl)-4-(4-dimethylaminophenyl)-4-phenyl-2-imidazoline] | 210 to 213 | 
Fc1ccc(C2(c3ccc(F)cc3)CNC(c3cccs3)=N2)cc1 [Example 9-7, 4,4-bis(4-fluorophenyl)-2-(2-thienyl)-2-imidazoline] | 156 to 160 | 
N#Cc1cccc(C2=NC(c3cccc(F)c3)(c3cccc(F)c3)CN2)c1 [Example 5-1, 2-(3-cyanophenyl)-4,4-bis(3-fluorophenyl)-2-imidazoline] |  | IC50 (human NPY Y5 receptor): 2.3 nM
CS(=O)(=O)c1cccc(C2=NC(c3ccc(F)cc3)(c3ccc(F)cc3)CN2)c1 [Example 5-34, 4,4-bis(4-fluorophenyl)-2-(3-methylsulfonylphenyl)-2-imidazoline] | 209 to 212 | 
N#Cc1cccc(C2=NC(c3ccccc3)(C3CCC3)CN2)c1 (stereo not shown) [Example 5-46, 2-(3-cyanophenyl)-4-cyclobutyl-4-phenyl-2-imidazoline] | 117 to 118 | 
Cc1ccc(C2(c3ccccc3)CNC(c3cccc(C#N)c3)=N2)cc1 (stereo not shown) [Example 5-11, 2-(3-cyanophenyl)-4-(4-methylphenyl)-4-phenyl-2-imidazoline] | 179 to 180 | 
c1ccc(C2(c3ccccc3)CNC(c3cnccn3)=N2)cc1 [Example 5-31, 4,4-diphenyl-2-pyrazinyl-2-imidazoline] | 183 to 184 | 
O=[N+]([O-])c1cccc(C2=NC(c3ccc(F)cc3)(c3ccc(F)cc3)CN2)c1 [Example 5-13, 4,4-bis(4-fluorophenyl)-2-(3-nitrophenyl)-2-imidazoline] | 156 to 158 | 
CC1NC(c2cnccn2)=NC1(c1ccc(F)cc1)c1ccc(F)cc1 (stereo not shown) [Example 7, 4,4-bis(4-fluorophenyl)-5-methyl-2-pyrazinyl-2-imidazoline] |  | half-life ([1]; Sprague-Dawley, rat, plasma, read-out: half-life in blood (converted)): 5.1 h; biological availability ratio [1]: 35%; cerebral concentration [2]: 2.95 nM/g; concentration at 2 h ([2]; cerebrospinal fluid, read-out: cerebrospinal concentration): 32 nM; concentration at 2 h ([2]; plasma, read-out: plasma concentration): 730 nM; IC50 (human NPY Y5 receptor): 3.4 nM
N#Cc1ccnc(C2=NC(c3ccc(F)cc3)(c3ccnc(F)c3)CN2)c1 (stereo not shown) [Example 14-2, 2-(4-cyano-2-pyridyl)-4-(4-fluorophenyl)-4-(2-fluoro-4-pyridyl)-2-imidazoline] | 169 to 171 | 
Fc1ccc(C2(c3ccc(F)cc3)CNC(c3ccsc3)=N2)cc1 [Example 9-10, 4,4-bis(4-fluorophenyl)-2-(3-thienyl)-2-imidazoline] | 160 to 163 | 
Cc1cccc(C2=NC(c3ccc(F)cc3)(c3ccc(F)cc3)CN2)c1 [Example 9-6, 4,4-bis(4-fluorophenyl)-2-(3-methylphenyl)-2-imidazoline] | 148 to 149 | 
N#Cc1cccc(C2=NC(c3ccccc3)(C3CCCCC3)CN2)c1 (stereo not shown) [Example 5-42, 2-(3-cyanophenyl)-4-cyclohexyl-4-phenyl-2-imidazoline] | 151 to 152 | 
Fc1ccc(C2(c3ccc(F)cc3)CNC(c3cccc(OC(F)(F)F)c3)=N2)cc1 [Example 9-4, 4,4-bis(4-fluorophenyl)-2-(3-trifluoromethoxyphenyl)-2-imidazoline] | 114 to 117 | 
